Legend:
[1] = system: Rat; test: concentration in liver after dosing; conditions: 20 min; dosed: Bis 2-Chloroethoxy Methane; 20 mg/kg; iv; Female; F344
[2] = system: Rat; test: concentration in kidney after dosing; conditions: 1 h; dosed: Fluorotelomer alcohol 8+2; 24 mg/kg; oral; Male; Harlan Sprague Dawley
[3] = system: rat; test: concentration in plasma after dosing; negative times count back from the end of exposure; conditions: dosed: trichloroethylene, inhalation, duration: 4 hr, female, F344

`ClCCOCOCCCl` [Bis 2-Chloroethoxy Methane] was tested, and the concentration in liver [1] was 1090 ng/g.
In the case of `OCCC(F)(F)C(F)(F)C(F)(F)C(F)(F)C(F)(F)C(F)(F)C(F)(F)C(F)(F)F` [Fluorotelomer alcohol 8+2], the concentration in kidney [2] is reported as 1520 ng/g.
`O=C(O)C(Cl)(Cl)Cl` [trichloroacetic acid] showed a concentration in plasma ([3]; 30 s, 600 ppm) of 21100 ng/mL, a concentration in plasma ([3]; 241 s, 600.4 ppm) of 15900 ng/mL and a concentration in plasma ([3]; 0.2413 h, 600.4 ppm) of 25200 ng/mL. For the same compound, the concentration in plasma ([3]; 0.5005 h, 600.4 ppm) was 28200 ng/mL, the concentration in plasma ([3]; 0.963 h, 600 ppm) was 24500 ng/mL and the concentration in plasma ([3]; 2.113 h, 600 ppm) was 33800 ng/mL. It also gave a concentration in plasma ([3]; 4.901 h, 600.4 ppm) of 36600 ng/mL, a concentration in plasma ([3]; 5.077 h, 600 ppm) of 46200 ng/mL and a concentration in plasma ([3]; 20.89 h, 600.4 ppm) of 8380 ng/mL. The concentration in plasma ([3]; 21.02 h, 600 ppm) was 25300 ng/mL, the concentration in plasma ([3]; 28.48 h, 600.4 ppm) was 3970 ng/mL and the concentration in plasma ([3]; 29.96 h, 600 ppm) was 14100 ng/mL. The concentration in plasma ([3]; 44.93 h, 600.4 ppm) was 1220 ng/mL, the concentration in plasma ([3]; 45.37 h, 600 ppm) was 8190 ng/mL and the concentration in plasma ([3]; -0.5889 h, 600.4 ppm, during exposure) was 15300 ng/mL. It also gave a concentration in plasma ([3]; -3.292 h, 600.4 ppm, during exposure) of 1380 ng/mL and a concentration in plasma ([3]; -3.75 h, 600 ppm, during exposure) of 5790 ng/mL.

— EPA's CvTdb concentration-time database
